Source: PubChem BioAssay (NCI)
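Dose response: 5 concentrations. Exposure: 48 h. Format: 96-well plates. Endpoint: linear interpolation; highest concentration if not reached. GI50: concentration for 50% inhibition of growth. TGI is the concentration that stops growth completely.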

What was measured:
Assay in all cases: NCI anticancer screen, dose series, 48 h
[1] = test system: 786-0 renal
[2] = test system: A498 renal
[3] = test system: A549 NSCLC
[4] = test system: ACHN renal
[5] = test system: BT-549 breast
[6] = test system: CAKI-1 renal
[7] = test system: CCRF-CEM leukemia
[8] = test system: COLO 205 colon
[9] = test system: DU-145 prostate
[10] = test system: EKVX NSCLC
[11] = test system: HCC-2998 colon
[12] = test system: HCT-116 colon
[13] = test system: HCT-15 colon
[14] = test system: HL-60(TB) leukemia
[15] = test system: HOP-62 NSCLC
[16] = test system: HOP-92 NSCLC
[17] = test system: HS 578T breast
[18] = test system: HT29 colon
[19] = test system: IGROV1 ovarian
[20] = test system: K-562 leukemia
[21] = test system: KM12 colon
[22] = test system: LOX IMVI melanoma
[23] = test system: M14 melanoma
[24] = test system: MALME-3M melanoma
[25] = test system: MCF7 breast
[26] = test system: MDA-MB-231 breast
[27] = test system: MDA-MB-435
[28] = test system: MOLT-4 leukemia
[29] = test system: NCI-H226 lung
[30] = test system: NCI-H23 lung
[31] = test system: NCI-H460 lung
[32] = test system: NCI-H522 lung
[33] = test system: NCI/ADR-RES ovarian
[34] = test system: OVCAR-3 ovarian
[35] = test system: OVCAR-4 ovarian
[36] = test system: OVCAR-5 ovarian
[37] = test system: OVCAR-8 ovarian
[38] = test system: PC-3 prostate
[39] = test system: RPMI-8226 leukemia
[40] = test system: RXF 393 renal
[41] = test system: SF-268 CNS
[42] = test system: SF-295 CNS
[43] = test system: SF-539 CNS
[44] = test system: SK-MEL-2 melanoma
[45] = test system: SK-MEL-28 melanoma
[46] = test system: SK-MEL-5 melanoma
[47] = test system: SN12C renal
[48] = test system: SNB-19 CNS
[49] = test system: SNB-75 CNS
[50] = test system: SR leukemia
[51] = test system: SW-620 colon
[52] = test system: T-47D breast
[53] = test system: TK-10 renal
[54] = test system: U251 CNS
[55] = test system: UACC-257 melanoma
[56] = test system: UACC-62 melanoma
[57] = test system: UO-31 renal

Clc1nc(Cl)c2ncn(Cc3cccc(Cn4cnc5c(Cl)nc(Cl)nc54)c3)c2n1
GI50 [1]: 12.3 µM
TGI [1]: 26.6 µM
GI50 [2]: 4.59 µM
TGI [2]: 17.2 µM
GI50 [3]: 11.3 µM
TGI [3]: 26.3 µM
GI50 [4]: 2.53 µM
TGI [4]: 6.21 µM
GI50 [5]: 3.35 µM
TGI [5]: 11.3 µM
GI50 [6]: 12 µM
TGI [6]: 26.3 µM
GI50 [7]: 2.25 µM
TGI [7]: 5.32 µM
GI50 [8]: 3.37 µM
TGI [8]: 11.3 µM
GI50 [9]: 1.72 µM
TGI [9]: 3.09 µM
GI50 [10]: 3.09 µM
TGI [10]: 11 µM
GI50 [11]: 2.38 µM
TGI [11]: 7.11 µM
GI50 [12]: 2.45 µM
TGI [12]: 6.28 µM
GI50 [13]: 5.78 µM
TGI [13]: 22.3 µM
GI50 [14]: 2.9 µM
TGI [14]: 82.8 µM
GI50 [15]: 4.97 µM
TGI [15]: 18 µM
GI50 [16]: 6.13 µM
TGI [16]: 22.4 µM
GI50 [17]: 2.69 µM
TGI [17]: 7.29 µM
GI50 [18]: 4.42 µM
TGI [18]: > 100 µM
GI50 [19]: 7.33 µM
TGI [19]: 20.2 µM
GI50 [20]: 3.11 µM
TGI [20]: 17.1 µM
GI50 [21]: 2.87 µM
TGI [21]: 8.95 µM
GI50 [22]: 2.23 µM
TGI [22]: 5.57 µM
GI50 [23]: 2.77 µM
TGI [23]: 7.65 µM
GI50 [24]: 3.11 µM
TGI [24]: 9.84 µM
GI50 [25]: 3.66 µM
TGI [25]: 37.4 µM
GI50 [26]: 2.66 µM
TGI [26]: 7 µM
GI50 [27]: 7.29 µM
TGI [27]: 22.2 µM
GI50 [28]: 3.48 µM
TGI [28]: 13.7 µM
GI50 [29]: 4.76 µM
TGI [29]: 26.8 µM
GI50 [30]: 8.5 µM
TGI [30]: 22.1 µM
GI50 [31]: 3.7 µM
TGI [31]: 13.6 µM
GI50 [32]: 2.9 µM
TGI [32]: 7.01 µM
GI50 [33]: 12.5 µM
TGI [33]: 35 µM
GI50 [34]: 2.38 µM
TGI [34]: 7.22 µM
GI50 [35]: 3.69 µM
TGI [35]: 13.2 µM
GI50 [36]: 15 µM
TGI [36]: 28.8 µM
GI50 [37]: 4.67 µM
TGI [37]: 18.6 µM
GI50 [38]: 3.99 µM
TGI [38]: 13.6 µM
GI50 [39]: 2.59 µM
TGI [39]: 11.1 µM
GI50 [40]: 1.92 µM
TGI [40]: 3.72 µM
GI50 [41]: 13 µM
TGI [41]: 31.5 µM
GI50 [42]: 16.5 µM
TGI [42]: 30.9 µM
GI50 [43]: 1.39 µM
TGI [43]: 3.13 µM
GI50 [44]: 2.79 µM
TGI [44]: 7.72 µM
GI50 [45]: 4.25 µM
TGI [45]: 22.1 µM
GI50 [46]: 2.47 µM
TGI [46]: 5.87 µM
GI50 [47]: 4.73 µM
TGI [47]: 18.3 µM
GI50 [48]: 3.02 µM
TGI [48]: 13.7 µM
GI50 [49]: 5.58 µM
TGI [49]: 22.6 µM
GI50 [50]: 2.94 µM
TGI [50]: 8.41 µM
GI50 [51]: 1.82 µM
TGI [51]: 3.34 µM
GI50 [52]: 3.01 µM
TGI [52]: 8.43 µM
GI50 [53]: 2.46 µM
TGI [53]: 7.31 µM
GI50 [54]: 3.91 µM
TGI [54]: 13.9 µM
GI50 [55]: 4.78 µM
TGI [55]: 17.2 µM
GI50 [56]: 2.41 µM
TGI [56]: 5.91 µM
GI50 [57]: 1.92 µM
TGI [57]: 3.55 µM
